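Cultured in 96-well plates, cells were exposed to test compound for 48 hours across five concentrations. GI50 = concentration required for 50% inhibition of growth. The concentration for full growth arrest is given as TGI.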

These results are taken from PubChem BioAssay (NCI).

Some test systems named below: A498 renal; HT29 colon; KM12 colon; OVCAR-4 ovarian; OVCAR-8 ovarian; SF-268 CNS; TK-10 renal; U251 CNS; UACC-62 melanoma.
Assay in all cases: NCI-60 cell line screen, 48 h

`COc1cc(/C=C\c2ccncc2)cc(OC)c1OC`: the TGI in the assay on A498 renal, with HT29 colon, with KM12 colon, in the assay with OVCAR-4 ovarian, in the assay on OVCAR-8 ovarian and in the assay with SF-268 CNS was above 100 µM each time. Further, the TGI with TK-10 renal, with U251 CNS and with UACC-62 melanoma was above 100 µM in each case.
For the compound `CCCCCCCCCCCCCP(=O)(NCC(N)=O)OCC` (configuration not stated), the TGI worked out at 95.7 µM with A498 renal; 31.7 µM with HT29 colon; 34 µM in the assay with KM12 colon; 32.2 µM with OVCAR-4 ovarian; 45.8 µM in the assay with OVCAR-8 ovarian; 38.4 µM in the assay with SF-268 CNS. Also, the TGI worked out at 37.4 µM in the assay on TK-10 renal, 33 µM in the assay with U251 CNS and 33 µM in the assay with UACC-62 melanoma.
As to `COC/N=C(/N)NC#N`, the TGI with A498 renal, in the assay on HT29 colon, in the assay with KM12 colon, in the assay on OVCAR-4 ovarian, in the assay on OVCAR-8 ovarian and with SF-268 CNS was above 100 µM each time. Also, the TGI with TK-10 renal, in the assay with U251 CNS and in the assay on UACC-62 melanoma was above 100 µM each time.
Consider `C#C[C@H]1CCCCCC1O` (some centres not stated), for which the TGI with A498 renal, with HT29 colon, in the assay with KM12 colon, with OVCAR-4 ovarian, in the assay with OVCAR-8 ovarian and with SF-268 CNS was above 100 µM each time. In addition, the TGI with TK-10 renal, with U251 CNS and in the assay on UACC-62 melanoma was above 100 µM throughout.
For `COc1ccc(-c2onc(-c3c(C)cc(C)cc3C)c2C2=NCCN2)cc1`, the TGI with HT29 colon was above 100 µM; in the assay on KM12 colon, above 100 µM; in the assay on OVCAR-4 ovarian, above 100 µM; with OVCAR-8 ovarian, above 100 µM; with SF-268 CNS, above 100 µM; with U251 CNS, 46.7 µM. This compound returned a TGI with UACC-62 melanoma above 100 µM.
Consider `CCN(C(=O)CN1CCN(c2cc3c(cc2F)c(=O)c(C(=O)O)cn3CC)CC1)c1nc(-c2ccccc2)cs1`, for which the GI50 in the assay on A498 renal was 0.244 µM; in the assay with HT29 colon, 0.301 µM; in the assay with KM12 colon, 0.393 µM; in the assay with OVCAR-4 ovarian, 0.347 µM; in the assay with OVCAR-8 ovarian, 0.364 µM; in the assay with SF-268 CNS it was 0.43 µM. Moreover, the GI50 with TK-10 renal was 0.408 µM; with U251 CNS, 0.354 µM. Besides, the TGI in the assay on A498 renal is 0.917 µM; in the assay on HT29 colon, above 100 µM; in the assay on KM12 colon it was above 100 µM; in the assay on OVCAR-4 ovarian, above 100 µM; in the assay on OVCAR-8 ovarian, above 100 µM; in the assay with SF-268 CNS it was above 100 µM. For the same compound, the TGI in the assay on TK-10 renal and in the assay with U251 CNS was above 100 µM each time.
For the compound `COc1cccc(C2C(C#N)=C(N)Oc3c2ccc2ccccc32)c1` (configuration not stated), the GI50 with A498 renal is 0.0108 µM; in the assay with HT29 colon, 0.0926 µM; in the assay with KM12 colon, below 0.0116 µM; in the assay on OVCAR-8 ovarian, 0.0346 µM; with SF-268 CNS it was 0.0315 µM; in the assay on TK-10 renal, 5.71 µM. The GI50 in the assay on U251 CNS was 0.0213 µM; in the assay with UACC-62 melanoma it was below 0.01 µM. The TGI was determined as 13.6 µM with A498 renal; 4.71 µM in the assay on HT29 colon; 2.26 µM with KM12 colon; 18.6 µM in the assay on OVCAR-4 ovarian; 19.2 µM in the assay with OVCAR-8 ovarian; 10.5 µM in the assay with SF-268 CNS. The TGI in the assay on TK-10 renal came out at 27.3 µM; with U251 CNS, 11.1 µM; with UACC-62 melanoma it was 19.8 µM.
For the compound `O=C(CCc1nc(=S)[nH][nH]1)Nc1cccc(C(F)(F)F)c1`, the TGI in the assay with A498 renal, with HT29 colon, in the assay with KM12 colon, in the assay with OVCAR-4 ovarian, in the assay on OVCAR-8 ovarian and in the assay with SF-268 CNS was above 100 µM throughout. For the same compound, the TGI with TK-10 renal, in the assay on U251 CNS and with UACC-62 melanoma was above 100 µM throughout.
Take `N.N.N.N.N.O=S(=O)([O-])C(F)(F)F.O=S(=O)([O-])C(F)(F)F.[Os+8]`: the GI50 in the assay on A498 renal is 12 µM; in the assay on HT29 colon it was 15.4 µM; with KM12 colon it was 13.7 µM; in the assay on OVCAR-8 ovarian, 13.5 µM; with TK-10 renal, 33 µM; in the assay on U251 CNS it was 9.22 µM. In the assay with UACC-62 melanoma, the GI50 was 12.1 µM. The TGI with A498 renal came to 29.5 µM; with HT29 colon it was 55.3 µM; in the assay on KM12 colon, 35 µM; with OVCAR-8 ovarian, 86.7 µM; with TK-10 renal it was 95.4 µM; in the assay with U251 CNS, 32.5 µM. In the assay on UACC-62 melanoma, this compound displayed a TGI of 28.2 µM.
As to `CC1=C(Cl)C[C@@H](/C(C)=C\Cl)O[C@@]1(O)C(Br)Br`, the TGI was 98.4 µM in the assay on A498 renal; above 100 µM in the assay with HT29 colon; above 100 µM with KM12 colon; above 100 µM with OVCAR-4 ovarian; above 100 µM in the assay with OVCAR-8 ovarian; above 100 µM in the assay on SF-268 CNS. In addition, the TGI in the assay with TK-10 renal, in the assay with U251 CNS and in the assay on UACC-62 melanoma was above 100 µM in each case.
On to `COC(=O)/C(C#N)=C1\CCc2ccccc21`, for which the TGI in the assay on A498 renal, in the assay on HT29 colon, in the assay with KM12 colon, in the assay on OVCAR-4 ovarian, in the assay on OVCAR-8 ovarian and with SF-268 CNS was above 100 µM in each case. Further, the TGI in the assay on TK-10 renal and in the assay on UACC-62 melanoma was above 100 µM throughout.
Regarding `Nc1ccc(C(=O)N/C(=C\c2cccc([N+](=O)[O-])c2)c2nc3ccc(Cl)cc3[nH]2)cc1`, the TGI with HT29 colon, in the assay on KM12 colon, in the assay on OVCAR-4 ovarian, in the assay on OVCAR-8 ovarian, with SF-268 CNS and with TK-10 renal was above 100 µM in each case. Also, the TGI with U251 CNS and in the assay with UACC-62 melanoma was above 100 µM throughout.
As for `Cc1cc(C)nc(NS(=O)(=O)c2ccc(NC(=O)c3cccn4c(=O)c5ccccc5nc34)cc2)n1`, the TGI is above 100 µM in the assay on HT29 colon; above 100 µM in the assay with KM12 colon; 68.3 µM in the assay with OVCAR-4 ovarian; 85.2 µM in the assay on OVCAR-8 ovarian; above 100 µM in the assay on SF-268 CNS; above 100 µM in the assay on TK-10 renal. Also, the TGI with U251 CNS was above 100 µM; with UACC-62 melanoma it was 51.9 µM.
